Test results as given in paper PMC4914680 (Antimicrobial Agents and Chemotherapy, 2016).
Entries after “also recorded” stand apart in the source; their conditions may differ. Read-outs that look alike come from different tables or passages of the source.

Legend:
[1] = tested on: INI (140S, 148H) resistant virus (NLRepRluc-G140S/Q148H); assay type: cell-based, HIV-1
[2] = tested on: NRTI (184V) resistant virus (LAI M184V); assay type: cell-based, HIV-1
[3] = tested on: HIV-1 NL4-3 ΔV370 variant (NLRepRlucP373S/Δ370); assay type: cell-based
[4] = tested on: V370M virus (recombinant virus with gag/pr genes from a clinical isolate); test: microbe, parasite or virus in culture; assay type: cell-based, HIV-1; conditions: Human immunodeficiency virus 1, MT2, read-out: EC50 (SD)
[5] = tested on: NRTI (41L, 67N, 215F, 219E, 69N), AZT-resistant virus 7324-1; assay type: cell-based, HIV-1
[6] = tested on: NNRTI (103N, 181C) resistant virus; assay type: cell-based, HIV-1
[7] = tested on: PI (54V, 82A, 84V 84V) resistant virus; assay type: cell-based, HIV-1
[8] = tested on: subtype B gag/pr recombinant viruses; test: Multiple-cycle Gag/Pr phenotyping assay; assay type: cell-based, HIV-1
[9] = biological target: T1, HIV-1 gp160 (Human immunodeficiency virus type 1 group M subtype B, UniProt P04578); test: HIV-1 cell fusion assay; assay type: cell-based
T1 construct: expressed in transfected cells; host or cells: NL-TOE donor cells (target cells: HeLa C14)

[10] = tested on: HIV-1 NL4-3; test: Time-of-addition study, NL4-3-infected B6 cells; assay type: cell-based; conditions: single cycle; for effect on luciferase signal by time of addition: 24 h postinfection; for time postinfection at which effectiveness begins to be lost: >100-fold EC50
[11] = tested on: HIV-LAI envelope-pseudotyped RepRlucP373SΔenv virus; test: Two-stage single-cycle pseudotype assay (HIV-1 entry assay); assay type: cell-based
[12] = biological target: WT HIV-1 VLPs, p25 to p24 (CA/SP1) cleavage (Human immunodeficiency virus type 1 group M subtype B, UniProt P03348); test: HIV-1 VLP protease cleavage assay; assay type: biochemical; conditions: Western blot
[13] = biological target: HIV-1 Gag (WT LAI VLPs) (Human immunodeficiency virus type 1 group M subtype B, UniProt P03348); test: [3H]BMS-955176-Gag binding (SPA); conditions: raltegravir at 10 μM; data not shown
[14] = tested on: PI (46I, 82F, 84V, 90 M) resistant virus; assay type: cell-based, HIV-1
[15] = Human immunodeficiency virus 1, NL43, MT2
[16] = Human immunodeficiency virus 1, NL43, MT2, read-out: EC50 (SD)
[17] = Human immunodeficiency virus 1, read-out: EC50 (mean), sublibrary, None (WT), n=21
[18] = Human immunodeficiency virus 1, read-out: EC50 (mean), sublibrary, T371A/Q/N/S/TT, n=4
[19] = Human immunodeficiency virus 1, read-out: EC50 (mean), sublibrary, V362I, n=3
[20] = Human immunodeficiency virus 1, read-out: EC50 (mean), sublibrary, V370A + ΔT371, n=3
[21] = Human immunodeficiency virus 1, read-out: EC50 (mean), sublibrary, V370A, n=3
[22] = Human immunodeficiency virus 1, read-out: EC50 (mean), sublibrary, V370I/L/T, n=3
[23] = Human immunodeficiency virus 1, read-out: EC50 (mean), sublibrary, V370 M, n=5

COC(=O)N[C@H](C(=O)N[C@@H](Cc1ccccc1)[C@@H](O)CN(Cc1ccc(-c2ccccn2)cc1)NC(=O)[C@@H](NC(=O)OC)C(C)(C)C)C(C)(C)C [Atazanavir]
Fold change in EC50 (SD) relative to parental strain [1]: 1.0 (0.21)
Fold change in EC50 (SD) relative to parental strain [2]: 1.1 (0.1)
EC50 [3, 15]: 3.8 nM
EC50 [4]: 2.3 nM
Fold change in EC50 (SD) relative to parental strain [5]: 2.27 (0.02)
Fold change in EC50 (SD) relative to parental strain [6]: 0.93 (0.03)
Fold change in EC50 (SD) relative to parental strain [7]: 39

C=C(C)[C@@H]1CC[C@]2(C(=O)O)CC[C@]3(C)[C@H](CC[C@@H]4[C@@]5(C)CC=C(c6ccc(C(=O)O)cc6)C(C)(C)[C@@H]5CC[C@]43C)[C@@H]12 [BMS-1]
EC50 [3, 16]: > 6000 nM

C=C(C)[C@@H]1CC[C@]2(C(=O)NCCc3ccccn3)CC[C@]3(C)[C@H](CC[C@@H]4[C@@]5(C)CC=C(c6ccc(C(=O)O)cc6)C(C)(C)[C@@H]5CC[C@]43C)[C@@H]12 [BMS-2]
EC50 [3, 16]: 415 nM
EC50 [8, 17]: 14 nM
EC50 [8, 18]: 49 nM
EC50 [8, 19]: 29 nM
EC50 [8, 20]: 629 nM
EC50 [8, 21]: 38 nM
EC50 [8, 22]: 26 nM
EC50 [8, 23]: 76 nM

C=C(C)[C@@H]1CC[C@]2(C(=O)NCCN(C)C)CC[C@]3(C)[C@H](CC[C@@H]4[C@@]5(C)CC=C(c6ccc(C(=O)O)cc6)C(C)(C)[C@@H]5CC[C@]43C)[C@@H]12 [BMS-3]
EC50 [3, 16]: 31 nM

COc1ccnc2[nH]cc(C(=O)C(=O)N3CCN(C(=O)c4ccccc4)C[C@H]3C)c12 [BMS-378806]
EC50 ([9]; cell-cell fusion, luciferase, read-out: EC50): 0.9 nM
effect on luciferase signal by time of addition [10]: fully inhibitory (0% of control) only when added at the time of infection
time postinfection at which effectiveness begins to be lost [10]: ≤ 4 h
inhibition of luciferase, compound added at stage 1 (virus production) [11]: inhibitory when added at either stage 1 or 2
inhibition of luciferase, compound added at stage 2 (infection) [11]: inhibitory when added at either stage 1 or 2

C=C(C)[C@@H]1CC[C@]2(C(=O)O)CC[C@]3(C)[C@H](CC[C@@H]4[C@@]5(C)CC[C@H](OC(=O)CC(C)(C)C(=O)O)C(C)(C)[C@@H]5CC[C@]43C)[C@@H]12 [BVM, 3-O-(3′,3′-dimethylsuccinyl)betulinic acid, reference compound]
inhibition of conversion of VLP p25 to p24 [12]: inhibited the conversion of HIV-1 WT VLP p25 to p24 in a dose-dependent manner
competition for the binding of [3H]BMS-955176 [13]: A similar result was obtained by displacement
EC50 [3, 15]: ≥ 10000 nM
EC50 [3, 16]: > 10000 nM
effect on luciferase signal by time of addition [10]: had no effect when added at any time point
EC50 [8, 17]: 14 nM
EC50 [8, 18]: 113 nM
EC50 [8, 19]: 36 nM
EC50 [8, 20]: > 4000 nM
EC50 [8, 21]: 227 nM
EC50 [8, 22]: 251 nM
EC50 [8, 23]: 903 nM
inhibition of luciferase, compound added at stage 1 (virus production) [11]: inhibiting luciferase production only when added in the first stage; also recorded: does not attain complete inhibition relative to NFV
inhibition of luciferase, compound added at stage 2 (infection) [11]: inhibiting luciferase production only when added in the first stage

CC(C)CN(C[C@@H](O)[C@H](Cc1ccccc1)NC(=O)O[C@H]1CO[C@H]2OCC[C@H]21)S(=O)(=O)c1ccc(N)cc1 [Darunavir]
Fold change in EC50 (SD) relative to parental strain [1]: 1.1 (0.1)
Fold change in EC50 (SD) relative to parental strain [2]: 1.2 (0.4)
EC50 [3, 15]: 4.5 nM
EC50 [4]: 2.3 nM
Fold change in EC50 (SD) relative to parental strain [14]: 41 (1.9)
Fold change in EC50 (SD) relative to parental strain [6]: 0.90 (0.1)
Fold change in EC50 (SD) relative to parental strain [7]: 2.3

O=C1Nc2ccc(Cl)cc2[C@@](C#CC2CC2)(C(F)(F)F)O1 [Efavirenz]
Fold change in EC50 (SD) relative to parental strain [1]: 0.60 (0.3)
Fold change in EC50 (SD) relative to parental strain [2]: 1.0 (0.1)
time postinfection at which effectiveness begins to be lost [10]: 6 h
Fold change in EC50 (SD) relative to parental strain [14]: 0.20 (0.01)
Fold change in EC50 (SD) relative to parental strain [6]: 55 (2.2)
Fold change in EC50 (SD) relative to parental strain [7]: 1.4

Nc1ccn([C@@H]2CS[C@H](CO)O2)c(=O)n1 [Lamivudine]
EC50 [3, 15]: 470 nM

Cc1c(O)cccc1C(=O)N[C@@H](CSc1ccccc1)[C@H](O)CN1C[C@H]2CCCC[C@H]2C[C@H]1C(=O)NC(C)(C)C [NFV]
EC50 [3, 15]: 5 nM
EC50 [9]: > 2000 nM
effect on luciferase signal by time of addition [10]: had no effect when added at any time point
inhibition of luciferase, compound added at stage 1 (virus production) [11]: luciferase activity was inhibited
inhibition of luciferase, compound added at stage 2 (infection) [11]: luciferase production was not inhibited

Cc1ccnc2c1NC(=O)c1cccnc1N2C1CC1 [Nevirapine]
Fold change in EC50 (SD) relative to parental strain [1]: 0.89 (0.59)
Fold change in EC50 (SD) relative to parental strain [2]: 1.3 (0.2)
EC50 [3, 15]: 170 nM
EC50 [4]: 930 nM
Fold change in EC50 (SD) relative to parental strain [14]: 0.83 (0.08)
Fold change in EC50 (SD) relative to parental strain [5]: 1.6 (0.2)
Fold change in EC50 (SD) relative to parental strain [6]: >131 (108)

Cc1nnc(C(=O)NC(C)(C)c2nc(C(=O)NCc3ccc(F)cc3)c(O)c(=O)n2C)o1 [Raltegravir]
Fold change in EC50 (SD) relative to parental strain [1]: >340 (72)
competition for the binding of [3H]BMS-955176 [13]: did not compete
Fold change in EC50 (SD) relative to parental strain [2]: 1.9 (0.6)
EC50 [3, 15]: 3.4 nM
EC50 [4]: 3.3 nM
time postinfection at which effectiveness begins to be lost [10]: 8 h
Fold change in EC50 (SD) relative to parental strain [14]: 0.18 (0.07)
Fold change in EC50 (SD) relative to parental strain [6]: 1.8 (0.4)

Cc1cc(/C=C/C#N)cc(C)c1Nc1ccnc(Nc2ccc(C#N)cc2)n1 [Rilpivirine]
Fold change in EC50 (SD) relative to parental strain [1]: 1.0 (0.5)
Fold change in EC50 (SD) relative to parental strain [2]: 2.0 (0.3)
Fold change in EC50 (SD) relative to parental strain [14]: 2.6 (0.8)
Fold change in EC50 (SD) relative to parental strain [6]: 8.1 (1.5)

C[C@H](Cn1cnc2c(N)ncnc21)OCP(=O)(O)O [Tenofovir]
EC50 [3, 15]: 7.2 nM
EC50 [4]: 5 nM

Cc1cn([C@H]2C[C@H](N=[N+]=[N-])[C@@H](CO)O2)c(=O)[nH]c1=O [Zidovudine]
Fold change in EC50 (SD) relative to parental strain [1]: 0.82 (0.41)
Fold change in EC50 (SD) relative to parental strain [2]: 0.78 (0.03)
Fold change in EC50 (SD) relative to parental strain [5]: 79 (5)
Fold change in EC50 (SD) relative to parental strain [6]: 1.03 (0.17)
